Data on 1 compound can be found in paper PMC12454493, “Insight on novel sulfamoylphenyl pyrazole derivatives as anticancer carbonic anhydrase inhibitors” (Molecular Diversity, 2024).

Molecules are shown by their SMILES. Several values for one entry are separate records, joined by “and”; a condition that tells them apart may be missing. Equal values may be shown once. Some results are limits rather than exact numbers.

One assay concerns SF-268. The assay can be described thus: NCI-60 one-dose SRB screen (CNS Cancer). Type of assay: cell-based. To be noted: Homo sapiens, single dose 10 µM, 48 h, read-out: Growth inhibition percent (GI %).
For a further assay, the system named is SF-295. The experiment in a line: NCI-60 one-dose SRB screen (CNS Cancer). Type of assay: cell-based. The following applies: Homo sapiens, single dose 10 µM, 48 h, read-out: Growth inhibition percent (GI %).
The test system of the next assay is SF-539. The experiment in a line: NCI-60 one-dose SRB screen (CNS Cancer). The class given is cell-based. The following applies: Homo sapiens, single dose 10 µM, 48 h, read-out: Growth inhibition percent (GI %).
Another assay concerns SNB-19. The experiment in a line: NCI-60 one-dose SRB screen (CNS Cancer). The class given is cell-based. To be noted: Homo sapiens, single dose 10 µM, 48 h, read-out: Growth inhibition percent (GI %).
The next assay relates to SNB-75. The assay can be described thus: NCI-60 one-dose SRB screen (CNS Cancer). To be noted: Homo sapiens, single dose 10 µM, 48 h, read-out: Growth inhibition percent (GI %). The class given is cell-based.
A further assay has as its system U251. The assay can be described thus: NCI-60 one-dose SRB screen (CNS Cancer). The following applies: Homo sapiens, U-251, single dose 10 µM, 48 h, read-out: Growth inhibition percent (GI %). Type of assay: cell-based.
The test system of another assay is 786-0. The experiment in a line: NCI-60 one-dose SRB screen (Renal Cancer). Type of assay: cell-based. To be noted: Homo sapiens, single dose 10 µM, 48 h, read-out: Growth inhibition percent (GI %).
Another assay deals with A498. The experiment in a line: NCI-60 one-dose SRB screen (Renal Cancer). The following applies: Homo sapiens, single dose 10 µM, 48 h, read-out: Growth inhibition percent (GI %). The class given is cell-based.
A further assay has as its system ACHN. The experiment in a line: NCI-60 one-dose SRB screen (Renal Cancer). Type of assay: cell-based. To be noted: Homo sapiens, single dose 10 µM, 48 h, read-out: Growth inhibition percent (GI %).
Another assay has as its system CAKI-1. The experiment in a line: NCI-60 one-dose SRB screen (Renal Cancer). Type of assay: cell-based. The following applies: Homo sapiens, single dose 10 µM, 48 h, read-out: Growth inhibition percent (GI %).
For a further assay, the system named is RXF 393. The assay can be described thus: NCI-60 one-dose SRB screen (Renal Cancer). Type of assay: cell-based. The following applies: Homo sapiens, single dose 10 µM, 48 h, read-out: Growth inhibition percent (GI %).
The next assay relates to SN12C. The experiment in a line: NCI-60 one-dose SRB screen (Renal Cancer). The class given is cell-based. To be noted: Homo sapiens, single dose 10 µM, 48 h, read-out: Growth inhibition percent (GI %).
The subject of a further assay is TK-10. The experiment in a line: NCI-60 one-dose SRB screen (Renal Cancer). Type of assay: cell-based. To be noted: Homo sapiens, single dose 10 µM, 48 h, read-out: Growth inhibition percent (GI %).
Another assay deals with UO-31. The assay can be described thus: NCI-60 one-dose SRB screen (Renal Cancer). The class given is cell-based. The following applies: Homo sapiens, single dose 10 µM, 48 h, read-out: Growth inhibition percent (GI %).
The next assay deals with BT-549. The assay can be described thus: NCI-60 one-dose SRB screen (Breast Cancer). The class given is cell-based. The following applies: Homo sapiens, single dose 10 µM, 48 h, read-out: Growth inhibition percent (GI %).
The subject of a further assay is MDA-MB-468. The assay can be described thus: NCI-60 one-dose SRB screen (Breast Cancer). Type of assay: cell-based. The following applies: Homo sapiens, single dose 10 µM, 48 h, read-out: Growth inhibition percent (GI %).
For assay [1], the system named is panel of 60 cancer cell lines. The experiment in a line: NCI-60 one-dose SRB screen, range over the whole panel. Type of assay: cell-based. The following applies: Homo sapiens; single dose 10 µM, SRB assay, range over the tested cell lines; read-out: growth inhibition (GI %) range over the panels. The method, then: The National Cancer Institute (NCI) Developmental Therapeutic Program (www.dtp.nci.nih.gov) selected the 20 novel synthesized compounds 4a-e, 5a-e, 6a-c, 9a-e, 10 and 11 to test for their anticancer activity at a single dose of 10 µM using SRB assay. […] Supplementary Data S3; Table S1 presents the detailed screening results of the most promising compounds. The preliminary screening’s detailed results for the remaining compounds are elucidated in the (Supplementary Data S3; Table S2).
The guidelines of the Drug Evaluation Branch’s protocol at the NCI in Bethesda served as the basis for the in vitro anticancer screening assays. at one dose 10 µM against a panel of 60 cancer cell lines. The human tumor cell lines used belonged to nine panels: leukemia, melanoma, lung, colon, CNS, ovarian, renal, prostate and breast cancers using the sulforhodamine B (SRB) assay in a 48 h drug exposure protocol.

The target in the next assay is hCA XII (Homo sapiens, UniProt O43570). The experiment in a line: CA inhibitory activity, spectrophotometric p-NPA assay. The class given is biochemical. To be noted: p-NPA substrate, pH 7.5, 25 °C, triplicate; read-out: IC50 (µM) ± SD hCA XII.
hCA XII, sequence (O43570 25-354): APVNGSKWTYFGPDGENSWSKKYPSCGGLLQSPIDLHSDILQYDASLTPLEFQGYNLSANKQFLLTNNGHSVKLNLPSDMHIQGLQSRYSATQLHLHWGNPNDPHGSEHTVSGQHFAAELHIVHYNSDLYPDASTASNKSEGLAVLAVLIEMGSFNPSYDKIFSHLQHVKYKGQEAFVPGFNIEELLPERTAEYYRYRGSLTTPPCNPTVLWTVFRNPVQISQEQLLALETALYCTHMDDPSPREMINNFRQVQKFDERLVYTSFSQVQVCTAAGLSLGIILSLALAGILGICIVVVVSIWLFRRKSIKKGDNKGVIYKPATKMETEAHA

As a reminder, the inhibition is the percentage by which the read-out fell short of the control. What is called IC50 is the concentration that gives 50% inhibition. Turning to `NS(=O)(=O)c1ccc(NC(=O)COC(=O)c2cn(-c3ccc(S(N)(=O)=O)cc3)nc2-c2ccc(Br)cc2)cc1` [Compound 4d, 2-Oxo-2-[(4-sulfamoylphenyl)amino] ethyl 3-(4-bromophenyl)-1-(4-sulfamoylphenyl)-1H-pyrazole-4-carboxylate], the inhibition at 10 µM in the assay on SF-268 was 34.8%; in the assay on SF-295, below 5%; in the assay with SF-539, 26.7%; in the assay on SNB-19, 24.1%; in the assay with SNB-75 it was 64.3%; in the assay on U251, 25%. Further, the inhibition at 10 µM in the assay on 786-0 is 86.5%; with A498 it was 16.8%; in the assay on ACHN, below 5%; with CAKI-1, 63.5%; in the assay with RXF 393, below 5%; with SN12C it was 11.8%. In addition, the inhibition at 10 µM was below 5% with TK-10; 23.2% in the assay with UO-31; 79.9% with BT-549; 66.5% in the assay on MDA-MB-468; 8.46 to 86.5% in [1]. Further, at hCA XII, the IC50 is 0.81 µM and 0.814 µM.
